Assay results as given in PubChem BioAssay (NCI).
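A five-concentration, 48-hour dose response in 96-well plates underlies each endpoint, interpolated linearly between surrounding concentrations. TGI: total growth inhibition.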

Legend:
Test in all cases: NCI anticancer screen, dose series, 48 h
DU-145 prostate = tested on: DU-145 prostate
786-0 renal = tested on: 786-0 renal
IGROV1 ovarian = tested on: IGROV1 ovarian
MDA-MB-231 breast = tested on: MDA-MB-231 breast
SN12C renal = tested on: SN12C renal
U251 CNS = tested on: U251 CNS
RXF 393 renal = tested on: RXF 393 renal
UACC-257 melanoma = tested on: UACC-257 melanoma
T-47D breast = tested on: T-47D breast
OVCAR-3 ovarian = tested on: OVCAR-3 ovarian
SR leukemia = tested on: SR leukemia
MDA-N = tested on: MDA-N
NCI-H23 lung = tested on: NCI-H23 lung
MALME-3M melanoma = tested on: MALME-3M melanoma
SK-OV-3 ovarian = tested on: SK-OV-3 ovarian
SK-MEL-2 melanoma = tested on: SK-MEL-2 melanoma
KM12 colon = tested on: KM12 colon
MCF7 breast = tested on: MCF7 breast
HOP-62 NSCLC = tested on: HOP-62 NSCLC
MOLT-4 leukemia = tested on: MOLT-4 leukemia
COLO 205 colon = tested on: COLO 205 colon
K-562 leukemia = tested on: K-562 leukemia
SNB-75 CNS = tested on: SNB-75 CNS
CAKI-1 renal = tested on: CAKI-1 renal
HCT-116 colon = tested on: HCT-116 colon
NCI/ADR-RES ovarian = tested on: NCI/ADR-RES ovarian
MDA-MB-435 = tested on: MDA-MB-435
UACC-62 melanoma = tested on: UACC-62 melanoma
OVCAR-5 ovarian = tested on: OVCAR-5 ovarian
SW-620 colon = tested on: SW-620 colon
NCI-H226 lung = tested on: NCI-H226 lung
PC-3 prostate = tested on: PC-3 prostate
A549 NSCLC = tested on: A549 NSCLC
M14 melanoma = tested on: M14 melanoma
RPMI-8226 leukemia = tested on: RPMI-8226 leukemia
HCT-15 colon = tested on: HCT-15 colon
SK-MEL-28 melanoma = tested on: SK-MEL-28 melanoma
BT-549 breast = tested on: BT-549 breast
LOX IMVI melanoma = tested on: LOX IMVI melanoma
SF-539 CNS = tested on: SF-539 CNS
SF-295 CNS = tested on: SF-295 CNS
HT29 colon = tested on: HT29 colon
HCC-2998 colon = tested on: HCC-2998 colon
A498 renal = tested on: A498 renal
EKVX NSCLC = tested on: EKVX NSCLC
OVCAR-8 ovarian = tested on: OVCAR-8 ovarian
CCRF-CEM leukemia = tested on: CCRF-CEM leukemia
ACHN renal = tested on: ACHN renal
HOP-92 NSCLC = tested on: HOP-92 NSCLC
SK-MEL-5 melanoma = tested on: SK-MEL-5 melanoma
TK-10 renal = tested on: TK-10 renal
SF-268 CNS = tested on: SF-268 CNS

Cc1ccc(NC(=S)C#N)cc1Cl
TGI (DU-145 prostate): > 100 µM | TGI (786-0 renal): > 100 µM | TGI (IGROV1 ovarian): 48.4 µM | TGI (MDA-MB-231 breast): > 100 µM | TGI (SN12C renal): > 100 µM | TGI (U251 CNS): > 100 µM | TGI (RXF 393 renal): 97.8 µM | TGI (UACC-257 melanoma): > 100 µM | TGI (T-47D breast): > 100 µM | TGI (OVCAR-3 ovarian): 53.8 µM | TGI (SR leukemia): > 100 µM | TGI (MDA-N): > 100 µM | TGI (NCI-H23 lung): > 100 µM | TGI (MALME-3M melanoma): > 100 µM | TGI (SK-OV-3 ovarian): > 100 µM | TGI (SK-MEL-2 melanoma): > 100 µM | TGI (KM12 colon): > 100 µM | TGI (MCF7 breast): > 100 µM | TGI (HOP-62 NSCLC): > 100 µM | TGI (MOLT-4 leukemia): > 100 µM | TGI (COLO 205 colon): 65.2 µM | TGI (K-562 leukemia): > 100 µM | TGI (SNB-75 CNS): 75 µM | TGI (CAKI-1 renal): > 100 µM | TGI (HCT-116 colon): > 100 µM | TGI (NCI/ADR-RES ovarian): > 100 µM | TGI (MDA-MB-435): > 100 µM | TGI (UACC-62 melanoma): > 100 µM | TGI (OVCAR-5 ovarian): 85.7 µM | TGI (SW-620 colon): > 100 µM | TGI (NCI-H226 lung): > 100 µM | TGI (PC-3 prostate): > 100 µM | TGI (A549 NSCLC): > 100 µM | TGI (M14 melanoma): > 100 µM | TGI (RPMI-8226 leukemia): 56.2 µM | TGI (HCT-15 colon): > 100 µM | TGI (SK-MEL-28 melanoma): > 100 µM | TGI (BT-549 breast): > 100 µM | TGI (LOX IMVI melanoma): > 100 µM | TGI (SF-539 CNS): 70.5 µM | TGI (SF-295 CNS): > 100 µM | TGI (HT29 colon): > 100 µM | TGI (HCC-2998 colon): 52.8 µM | TGI (A498 renal): 73.7 µM | TGI (EKVX NSCLC): > 100 µM | TGI (OVCAR-8 ovarian): > 100 µM | TGI (CCRF-CEM leukemia): 80.3 µM | TGI (ACHN renal): > 100 µM | TGI (HOP-92 NSCLC): 62.8 µM | TGI (SK-MEL-5 melanoma): > 100 µM | TGI (TK-10 renal): > 100 µM | TGI (SF-268 CNS): > 100 µM
